Measurements published in ChEMBL document CHEMBL4507317, “Data for DCP probe BAY-899” (2021).

Legend:
[1] = biological target: Mitogen-activated protein kinase kinase kinase 4 (Homo sapiens) (UniProt Q9Y6R4); conditions: Compound concentration 1000.0 nM
[2] = biological target: 5-hydroxytryptamine receptor 2A (Homo sapiens, UniProt P28223); conditions: Compound concentration 10.0 uM
[3] = biological target: Serine/threonine-protein kinase/endoribonuclease IRE1 (Homo sapiens) (UniProt O75460); conditions: Compound concentration 1000.0 nM
[4] = biological target: Tyrosine-protein kinase CSK (Homo sapiens) (UniProt P41240); conditions: Compound concentration 1000.0 nM
[5] = biological target: SNF-related serine/threonine-protein kinase (Homo sapiens) (UniProt Q9NRH2); conditions: Compound concentration 1000.0 nM
[6] = biological target: Serine/threonine-protein kinase Chk2 (Homo sapiens) (UniProt O96017); conditions: Compound concentration 1000.0 nM
[7] = biological target: BMP-2-inducible protein kinase (Homo sapiens) (UniProt Q9NSY1); conditions: Compound concentration 1000.0 nM
[8] = biological target: Mitogen-activated protein kinase 14 (Homo sapiens) (UniProt Q16539); conditions: Compound concentration 1000.0 nM
[9] = test system: Tyrosine-protein kinase ABL1 (Homo sapiens), P00519 [T315I]; conditions: Compound concentration 1000.0 nM
[10] = biological target: Kappa-type opioid receptor (Homo sapiens, UniProt P41145); assay: GPCRScan assay: inhibition of KOR; parameters: radioligand conc. used [nm] 0.6 – 1.2, parental cells stable HEK
[11] = biological target: Serine/threonine-protein kinase Nek10 (Homo sapiens) (UniProt Q6ZWH5); conditions: Compound concentration 1000.0 nM
[12] = test system: Mast/stem cell growth factor receptor Kit (Homo sapiens), P10721 [A829P]; conditions: Compound concentration 1000.0 nM
[13] = biological target: Serine/threonine-protein kinase DCLK3 (Homo sapiens) (UniProt Q9C098); conditions: Compound concentration 1000.0 nM
[14] = biological target: Serine/threonine-protein kinase TNNI3K (Homo sapiens) (UniProt Q59H18); conditions: Compound concentration 1000.0 nM
[15] = biological target: SRSF protein kinase 1 (Homo sapiens) (UniProt Q96SB4); conditions: Compound concentration 1000.0 nM
[16] = biological target: Mu-type opioid receptor (Homo sapiens) (UniProt P35372); conditions: Compound concentration 10.0 uM
[17] = test system: Hepatocyte growth factor receptor (Homo sapiens), P08581 [M1250T]; conditions: Compound concentration 1000.0 nM
[18] = biological target: Ribosomal protein S6 kinase alpha-1 (Homo sapiens) (UniProt Q15418); conditions: Compound concentration 1000.0 nM
[19] = biological target: Beta-1 adrenergic receptor (Homo sapiens) (UniProt P08588); conditions: Compound concentration 10.0 uM
[20] = biological target: Bone morphogenetic protein receptor type-2 (Homo sapiens) (UniProt Q13873); conditions: Compound concentration 1000.0 nM
[21] = test system: Fibroblast growth factor receptor 3 (Homo sapiens), P22607 [G697C]; conditions: Compound concentration 1000.0 nM
[22] = biological target: Rhodopsin kinase GRK7 (Homo sapiens) (UniProt Q8WTQ7); conditions: Compound concentration 1000.0 nM
[23] = biological target: Tyrosine-protein kinase Yes (Homo sapiens) (UniProt P07947); conditions: Compound concentration 1000.0 nM
[24] = biological target: Myosin light chain kinase, smooth muscle (Homo sapiens) (UniProt Q15746); conditions: Compound concentration 1000.0 nM
[25] = biological target: Serine/threonine-protein kinase N2 (Homo sapiens) (UniProt Q16513); conditions: Compound concentration 1000.0 nM
[26] = biological target: 5-hydroxytryptamine receptor 3A (Homo sapiens) (UniProt P46098); conditions: Compound concentration 10.0 uM
[27] = biological target: Calcium/calmodulin-dependent protein kinase type 1D (Homo sapiens) (UniProt Q8IU85); conditions: Compound concentration 1000.0 nM
[28] = biological target: Tyrosine-protein kinase Fgr (Homo sapiens) (UniProt P09769); conditions: Compound concentration 1000.0 nM
[29] = biological target: Atypical kinase COQ8B, mitochondrial (Homo sapiens) (UniProt Q96D53); conditions: Compound concentration 1000.0 nM
[30] = biological target: Serine/threonine-protein kinase MRCK alpha (Homo sapiens) (UniProt Q5VT25); conditions: Compound concentration 1000.0 nM
[31] = biological target: Serine/threonine-protein kinase 26 (Homo sapiens) (UniProt Q9P289); conditions: Compound concentration 1000.0 nM
[32] = biological target: Casein kinase I isoform delta (Homo sapiens) (UniProt P48730); conditions: Compound concentration 1000.0 nM
[33] = biological target: RAC-gamma serine/threonine-protein kinase (Homo sapiens) (UniProt Q9Y243); conditions: Compound concentration 1000.0 nM
[34] = test system: Mast/stem cell growth factor receptor Kit (Homo sapiens), P10721 [V559D]; conditions: Compound concentration 1000.0 nM
[35] = biological target: Serine/threonine-protein kinase STK11 (Homo sapiens) (UniProt Q15831); conditions: Compound concentration 1000.0 nM
[36] = test system: Phosphatidylinositol 4,5-bisphosphate 3-kinase catalytic subunit alpha isoform (Homo sapiens), P42336 [H1047L]; conditions: Compound concentration 1000.0 nM
[37] = biological target: Ephrin type-A receptor 8 (Homo sapiens) (UniProt P29322); conditions: Compound concentration 1000.0 nM
[38] = biological target: Casein kinase I isoform gamma-1 (Homo sapiens) (UniProt Q9HCP0); conditions: Compound concentration 1000.0 nM
[39] = biological target: 5-hydroxytryptamine receptor 1E (Homo sapiens) (UniProt P28566); conditions: Compound concentration 10.0 uM
[40] = biological target: Insulin-like growth factor 1 receptor (Homo sapiens) (UniProt P08069); conditions: Compound concentration 1000.0 nM
[41] = biological target: Mitogen-activated protein kinase kinase kinase 20 (Homo sapiens) (UniProt Q9NYL2); conditions: Compound concentration 1000.0 nM
[42] = test system: Leucine-rich repeat serine/threonine-protein kinase 2 (Homo sapiens), Q5S007 [G2019S]; conditions: Compound concentration 1000.0 nM
[43] = biological target: Ribosomal protein S6 kinase alpha-5 (Homo sapiens) (UniProt O75582); conditions: Compound concentration 1000.0 nM
[44] = biological target: Homeodomain-interacting protein kinase 1 (Homo sapiens) (UniProt Q86Z02); conditions: Compound concentration 1000.0 nM
[45] = biological target: Cyclin-dependent kinase 17 (Homo sapiens) (UniProt Q00537); conditions: Compound concentration 1000.0 nM

Sequence of Tyrosine-protein kinase Fgr (Homo sapiens) (P09769 2-529 limits assumed): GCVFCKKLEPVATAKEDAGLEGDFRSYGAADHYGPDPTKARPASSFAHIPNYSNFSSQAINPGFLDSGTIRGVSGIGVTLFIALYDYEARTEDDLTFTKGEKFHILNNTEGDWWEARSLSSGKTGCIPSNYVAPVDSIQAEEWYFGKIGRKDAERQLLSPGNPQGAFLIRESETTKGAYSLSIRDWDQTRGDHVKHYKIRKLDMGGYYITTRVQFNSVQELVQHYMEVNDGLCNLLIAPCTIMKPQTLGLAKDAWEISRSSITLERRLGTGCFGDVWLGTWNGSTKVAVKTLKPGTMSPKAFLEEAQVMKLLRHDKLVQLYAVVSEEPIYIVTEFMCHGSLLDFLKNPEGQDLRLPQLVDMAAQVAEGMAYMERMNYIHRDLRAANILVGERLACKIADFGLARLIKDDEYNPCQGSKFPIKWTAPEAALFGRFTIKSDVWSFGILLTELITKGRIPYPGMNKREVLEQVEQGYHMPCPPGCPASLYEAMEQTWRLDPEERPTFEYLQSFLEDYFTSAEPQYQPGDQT
Sequence of Serine/threonine-protein kinase DCLK3 (Homo sapiens) (Q9C098 whole entry): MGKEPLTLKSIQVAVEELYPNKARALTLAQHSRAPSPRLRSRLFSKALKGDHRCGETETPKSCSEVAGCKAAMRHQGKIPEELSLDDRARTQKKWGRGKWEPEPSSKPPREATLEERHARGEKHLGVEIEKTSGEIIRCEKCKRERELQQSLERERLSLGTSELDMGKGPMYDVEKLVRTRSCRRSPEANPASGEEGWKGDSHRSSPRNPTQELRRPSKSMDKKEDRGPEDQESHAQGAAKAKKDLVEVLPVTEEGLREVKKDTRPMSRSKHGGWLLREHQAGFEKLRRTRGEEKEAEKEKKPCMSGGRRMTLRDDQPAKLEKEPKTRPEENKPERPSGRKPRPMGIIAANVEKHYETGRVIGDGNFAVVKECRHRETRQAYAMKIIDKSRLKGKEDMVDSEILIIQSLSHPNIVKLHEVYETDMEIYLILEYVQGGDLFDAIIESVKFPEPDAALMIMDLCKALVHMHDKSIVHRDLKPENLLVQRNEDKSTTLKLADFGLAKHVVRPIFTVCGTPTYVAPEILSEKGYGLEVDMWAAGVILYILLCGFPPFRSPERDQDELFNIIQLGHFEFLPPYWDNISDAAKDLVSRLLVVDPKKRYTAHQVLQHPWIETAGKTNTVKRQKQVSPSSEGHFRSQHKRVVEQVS
Sequence of Kappa-type opioid receptor (P41145 whole entry): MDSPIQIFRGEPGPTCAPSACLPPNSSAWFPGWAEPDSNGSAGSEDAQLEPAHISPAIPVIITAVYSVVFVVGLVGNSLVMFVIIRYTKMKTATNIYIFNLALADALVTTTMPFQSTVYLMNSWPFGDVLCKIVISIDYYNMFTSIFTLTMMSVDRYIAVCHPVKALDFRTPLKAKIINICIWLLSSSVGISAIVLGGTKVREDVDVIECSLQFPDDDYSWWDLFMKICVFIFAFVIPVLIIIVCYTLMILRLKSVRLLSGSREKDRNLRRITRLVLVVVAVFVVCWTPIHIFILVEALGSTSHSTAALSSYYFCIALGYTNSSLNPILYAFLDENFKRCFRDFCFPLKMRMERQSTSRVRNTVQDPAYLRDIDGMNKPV
Sequence of Casein kinase I isoform delta (Homo sapiens) (P48730 whole entry, looked up, canonical isoform): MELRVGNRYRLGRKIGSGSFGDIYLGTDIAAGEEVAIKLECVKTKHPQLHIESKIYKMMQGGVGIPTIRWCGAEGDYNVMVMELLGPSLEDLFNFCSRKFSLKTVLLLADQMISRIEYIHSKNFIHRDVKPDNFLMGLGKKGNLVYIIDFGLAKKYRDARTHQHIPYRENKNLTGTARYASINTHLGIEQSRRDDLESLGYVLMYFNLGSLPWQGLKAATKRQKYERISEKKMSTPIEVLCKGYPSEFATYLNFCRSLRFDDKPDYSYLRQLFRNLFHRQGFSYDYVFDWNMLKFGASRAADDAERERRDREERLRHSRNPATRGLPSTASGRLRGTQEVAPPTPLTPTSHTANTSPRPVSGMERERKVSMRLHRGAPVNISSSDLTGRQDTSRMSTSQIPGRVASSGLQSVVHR
Sequence of Mast/stem cell growth factor receptor Kit (Homo sapiens), P10721 [V559D] (P10721 whole entry V559D): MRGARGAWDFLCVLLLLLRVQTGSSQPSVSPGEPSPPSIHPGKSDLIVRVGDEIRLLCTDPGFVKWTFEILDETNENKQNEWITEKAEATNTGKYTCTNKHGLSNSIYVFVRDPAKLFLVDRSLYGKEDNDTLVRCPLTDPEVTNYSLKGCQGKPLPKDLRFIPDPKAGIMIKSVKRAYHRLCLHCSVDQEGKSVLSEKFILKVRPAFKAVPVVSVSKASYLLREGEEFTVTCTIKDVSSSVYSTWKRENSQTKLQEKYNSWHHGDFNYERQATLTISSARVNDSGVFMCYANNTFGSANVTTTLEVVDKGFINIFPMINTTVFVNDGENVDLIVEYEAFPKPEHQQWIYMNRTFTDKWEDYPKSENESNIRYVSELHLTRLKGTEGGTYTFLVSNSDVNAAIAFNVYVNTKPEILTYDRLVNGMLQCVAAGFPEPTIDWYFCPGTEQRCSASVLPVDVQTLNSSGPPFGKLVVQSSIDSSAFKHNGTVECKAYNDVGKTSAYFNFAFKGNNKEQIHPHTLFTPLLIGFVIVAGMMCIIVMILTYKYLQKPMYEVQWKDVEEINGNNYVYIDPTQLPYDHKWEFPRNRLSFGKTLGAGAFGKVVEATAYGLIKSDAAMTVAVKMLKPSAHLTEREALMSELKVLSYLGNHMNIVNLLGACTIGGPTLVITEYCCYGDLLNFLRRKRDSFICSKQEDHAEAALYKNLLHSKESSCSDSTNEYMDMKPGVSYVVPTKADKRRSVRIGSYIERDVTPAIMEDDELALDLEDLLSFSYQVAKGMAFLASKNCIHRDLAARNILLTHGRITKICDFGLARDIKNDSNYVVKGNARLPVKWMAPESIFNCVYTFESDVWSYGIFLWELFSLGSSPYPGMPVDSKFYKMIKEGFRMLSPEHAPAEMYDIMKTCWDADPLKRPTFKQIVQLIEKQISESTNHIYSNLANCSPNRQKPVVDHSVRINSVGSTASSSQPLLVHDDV
Sequence of Serine/threonine-protein kinase/endoribonuclease IRE1 (Homo sapiens) (O75460 19-977 limits assumed): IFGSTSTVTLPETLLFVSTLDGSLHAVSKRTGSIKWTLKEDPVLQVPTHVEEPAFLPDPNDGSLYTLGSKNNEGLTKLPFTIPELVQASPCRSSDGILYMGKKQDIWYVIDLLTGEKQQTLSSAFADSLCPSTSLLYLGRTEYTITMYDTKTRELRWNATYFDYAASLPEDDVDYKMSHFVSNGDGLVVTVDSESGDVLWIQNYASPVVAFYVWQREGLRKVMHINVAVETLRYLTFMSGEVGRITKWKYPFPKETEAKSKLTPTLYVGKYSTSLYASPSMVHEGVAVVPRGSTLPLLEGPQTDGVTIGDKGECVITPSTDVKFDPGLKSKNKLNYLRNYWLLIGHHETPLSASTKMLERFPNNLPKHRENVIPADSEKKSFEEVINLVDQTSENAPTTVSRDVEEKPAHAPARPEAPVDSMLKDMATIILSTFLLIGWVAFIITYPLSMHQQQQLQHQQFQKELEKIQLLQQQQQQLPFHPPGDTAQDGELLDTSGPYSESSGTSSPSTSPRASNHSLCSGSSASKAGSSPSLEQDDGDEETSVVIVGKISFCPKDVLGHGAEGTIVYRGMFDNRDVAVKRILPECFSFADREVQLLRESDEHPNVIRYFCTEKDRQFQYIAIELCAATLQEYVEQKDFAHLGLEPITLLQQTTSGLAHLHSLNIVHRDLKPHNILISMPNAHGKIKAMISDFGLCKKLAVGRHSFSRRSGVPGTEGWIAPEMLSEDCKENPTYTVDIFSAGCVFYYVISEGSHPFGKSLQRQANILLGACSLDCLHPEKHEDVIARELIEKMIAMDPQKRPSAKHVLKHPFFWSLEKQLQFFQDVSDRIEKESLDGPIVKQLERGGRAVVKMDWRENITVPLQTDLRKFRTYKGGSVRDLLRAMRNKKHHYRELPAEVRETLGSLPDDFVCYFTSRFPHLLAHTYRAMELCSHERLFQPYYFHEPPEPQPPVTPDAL
Sequence of Serine/threonine-protein kinase Nek10 (Homo sapiens) (Q6ZWH5 whole entry): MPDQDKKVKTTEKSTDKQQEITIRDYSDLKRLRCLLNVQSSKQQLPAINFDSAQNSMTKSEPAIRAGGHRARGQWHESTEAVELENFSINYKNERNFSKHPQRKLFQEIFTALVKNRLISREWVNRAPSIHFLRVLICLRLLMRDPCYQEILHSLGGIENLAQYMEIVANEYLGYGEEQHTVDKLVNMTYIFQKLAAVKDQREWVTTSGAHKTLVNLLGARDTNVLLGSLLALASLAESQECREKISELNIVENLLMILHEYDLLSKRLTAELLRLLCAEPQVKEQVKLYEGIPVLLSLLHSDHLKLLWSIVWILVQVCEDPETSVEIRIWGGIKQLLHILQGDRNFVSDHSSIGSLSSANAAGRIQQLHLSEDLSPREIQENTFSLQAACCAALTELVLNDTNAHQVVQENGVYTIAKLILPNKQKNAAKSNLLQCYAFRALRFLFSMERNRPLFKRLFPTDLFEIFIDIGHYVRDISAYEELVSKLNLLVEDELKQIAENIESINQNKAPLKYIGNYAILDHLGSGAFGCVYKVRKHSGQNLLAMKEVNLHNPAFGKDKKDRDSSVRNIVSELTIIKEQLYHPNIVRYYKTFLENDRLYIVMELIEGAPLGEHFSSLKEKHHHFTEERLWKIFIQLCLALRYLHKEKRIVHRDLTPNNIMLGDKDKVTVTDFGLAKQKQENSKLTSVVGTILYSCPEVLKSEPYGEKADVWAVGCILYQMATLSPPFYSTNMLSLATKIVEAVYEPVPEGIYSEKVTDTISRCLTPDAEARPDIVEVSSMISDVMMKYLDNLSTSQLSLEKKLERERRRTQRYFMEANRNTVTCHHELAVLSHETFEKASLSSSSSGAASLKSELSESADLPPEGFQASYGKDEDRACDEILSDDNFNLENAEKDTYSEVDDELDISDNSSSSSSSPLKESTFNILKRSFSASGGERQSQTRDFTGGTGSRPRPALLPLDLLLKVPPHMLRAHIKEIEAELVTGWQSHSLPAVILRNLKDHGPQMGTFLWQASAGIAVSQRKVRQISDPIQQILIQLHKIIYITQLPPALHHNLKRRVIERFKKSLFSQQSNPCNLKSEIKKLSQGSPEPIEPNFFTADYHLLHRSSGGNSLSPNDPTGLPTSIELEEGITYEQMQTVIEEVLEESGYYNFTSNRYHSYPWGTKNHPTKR

For `O=C(Nc1ccc(Oc2ccc(F)cc2)cc1)N1CCc2ncccc2[C@H]1c1ccc(F)cc1` [BAY-897], which residual activity [1] is on record?
The residual activity was 100%.

What about the inhibition [2] of the same molecule?
The inhibition was 54.5%.

And the residual activity [3]?
Its residual activity is 85%.

And the residual activity [4]?
The residual activity was 100%.

And the residual activity [5]?
Its residual activity is 90%.

What about the residual activity [6] of the same molecule?
The residual activity was 94%.

What about the residual activity [7] of the same molecule?
The residual activity was 94%.

What about the residual activity [8] of the same molecule?
Its residual activity is 100%.

And the residual activity [9]?
Its residual activity is 98%.

And the Ki [10]?
The Ki was 3.13 µM.

What about the residual activity [11] of the same molecule?
The residual activity was 100%.

And the residual activity [12]?
The residual activity was 100%.

And the residual activity [13]?
The residual activity was 93%.

What about the residual activity [14] of the same molecule?
The residual activity was 100%.

What about the residual activity [15] of the same molecule?
Its residual activity is 94%.

And the inhibition [16]?
Its inhibition is 37.1%.

And the residual activity [17]?
Its residual activity is 97%.

What about the residual activity [18] of the same molecule?
The residual activity was 79%.

And the inhibition [19]?
Its inhibition is -7.28%.

And the residual activity [20]?
Its residual activity is 96%.

What about the residual activity [21] of the same molecule?
Its residual activity is 100%.

And the residual activity [22]?
The residual activity was 100%.

What about the residual activity [23] of the same molecule?
The residual activity was 100%.

And the residual activity [24]?
Its residual activity is 100%.

What about the residual activity [25] of the same molecule?
Its residual activity is 80%.

And the inhibition [26]?
Its inhibition is 4.7%.

And the residual activity [27]?
The residual activity was 100%.

What about the residual activity [28] of the same molecule?
The residual activity was 100%.

What about the residual activity [29] of the same molecule?
Its residual activity is 92%.

And the residual activity [30]?
The residual activity was 94%.

What about the residual activity [31] of the same molecule?
The residual activity was 100%.

What about the residual activity [32] of the same molecule?
Its residual activity is 90%.

What about the residual activity [33] of the same molecule?
Its residual activity is 95%.

What about the residual activity [34] of the same molecule?
The residual activity was 100%.

And the residual activity [35]?
The residual activity was 61%.

What about the residual activity [36] of the same molecule?
The residual activity was 85%.

What about the residual activity [37] of the same molecule?
Its residual activity is 92%.

And the residual activity [38]?
Its residual activity is 90%.

What about the inhibition [39] of the same molecule?
Its inhibition is 1.61%.

And the residual activity [40]?
The residual activity was 100%.

What about the residual activity [41] of the same molecule?
Its residual activity is 100%.

What about the residual activity [42] of the same molecule?
The residual activity was 100%.

What about the residual activity [43] of the same molecule?
The residual activity was 95%.

And the residual activity [44]?
The residual activity was 96%.

And the residual activity [45]?
The residual activity was 96%.

`O=C(Nc1cnc(Oc2ccc(F)cc2)nc1)N1CCc2ncccc2[C@@H]1c1ccc(F)cc1` [BAY-899] was tested. Which residual activity [1] did it give?
The residual activity was 89%.

What about the inhibition [2] of the same molecule?
Its inhibition is 8.72%.

And the residual activity [3]?
The residual activity was 85%.

And the residual activity [4]?
Its residual activity is 100%.

What about the residual activity [5] of the same molecule?
The residual activity was 90%.

And the residual activity [6]?
The residual activity was 92%.

What about the residual activity [7] of the same molecule?
Its residual activity is 93%.

What about the residual activity [8] of the same molecule?
Its residual activity is 79%.

And the residual activity [9]?
The residual activity was 100%.

What about the Ki [10] of the same molecule?
Its Ki is 7.63 µM.

What about the residual activity [11] of the same molecule?
The residual activity was 100%.

What about the residual activity [12] of the same molecule?
The residual activity was 100%.

And the residual activity [13]?
The residual activity was 96%.

And the residual activity [14]?
The residual activity was 100%.

What about the residual activity [15] of the same molecule?
Its residual activity is 100%.

And the inhibition [16]?
Its inhibition is 28.1%.

And the residual activity [17]?
The residual activity was 100%.

What about the residual activity [18] of the same molecule?
The residual activity was 71%.

What about the inhibition [19] of the same molecule?
Its inhibition is 11.3%.

What about the residual activity [20] of the same molecule?
Its residual activity is 88%.

What about the residual activity [21] of the same molecule?
The residual activity was 89%.

And the residual activity [22]?
The residual activity was 100%.

And the residual activity [23]?
Its residual activity is 98%.

And the residual activity [24]?
Its residual activity is 100%.

And the residual activity [25]?
Its residual activity is 78%.

And the inhibition [26]?
The inhibition was 45.8%.

And the residual activity [27]?
The residual activity was 100%.

What about the residual activity [28] of the same molecule?
Its residual activity is 100%.

And the residual activity [29]?
The residual activity was 100%.

And the residual activity [30]?
The residual activity was 96%.

What about the residual activity [31] of the same molecule?
Its residual activity is 90%.

And the residual activity [32]?
Its residual activity is 100%.

What about the residual activity [33] of the same molecule?
The residual activity was 78%.

And the residual activity [34]?
The residual activity was 100%.

And the residual activity [35]?
Its residual activity is 75%.

And the residual activity [36]?
Its residual activity is 92%.

What about the residual activity [37] of the same molecule?
The residual activity was 88%.

And the residual activity [38]?
The residual activity was 99%.

What about the inhibition [39] of the same molecule?
Its inhibition is -8.08%.

And the residual activity [40]?
The residual activity was 100%.

What about the residual activity [41] of the same molecule?
Its residual activity is 100%.

And the residual activity [42]?
Its residual activity is 100%.

What about the residual activity [43] of the same molecule?
Its residual activity is 85%.

What about the residual activity [44] of the same molecule?
The residual activity was 70%.

And the residual activity [45]?
The residual activity was 97%.
